This is an account of results in ChEMBL document CHEMBL1201862, “PubChem BioAssay data set” (2004).

For assay [1], the target named is T1, Beta-2 adrenergic receptor (Homo sapiens, UniProt P07550). Put plainly: beta2AR agonists driving receptor internalization, dose response, cell-based, FAP fluorogen, flow cytometry, cherry pick 1 (AID 588763). The assay is classed as functional. On the technique in general: A flow cytometer gives signals particle by particle.
Assay [2] deals with T1, Beta-2 adrenergic receptor. Description: Dose response for HTS for Beta-2AR agonists via FAP method from Powderset3. Type of assay: functional.
Assay [3] concerns the target T2, Fatty acid synthase (Homo sapiens, UniProt P49327). Put plainly: FAS thioesterase domain inhibitors, dose response, biochemical, endpoint fluorescence intensity, uHTS hits (AID 624327).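 Also: fluorescence from hydrolysis of an O-methyl fluorescein acyl ester substrate by the enzyme.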 The assay is classed as functional.
A further assay has as its target T3, Streptokinase A (Streptococcus pyogenes serotype M1, UniProt P10520).
T3 sequence (P10520 whole entry): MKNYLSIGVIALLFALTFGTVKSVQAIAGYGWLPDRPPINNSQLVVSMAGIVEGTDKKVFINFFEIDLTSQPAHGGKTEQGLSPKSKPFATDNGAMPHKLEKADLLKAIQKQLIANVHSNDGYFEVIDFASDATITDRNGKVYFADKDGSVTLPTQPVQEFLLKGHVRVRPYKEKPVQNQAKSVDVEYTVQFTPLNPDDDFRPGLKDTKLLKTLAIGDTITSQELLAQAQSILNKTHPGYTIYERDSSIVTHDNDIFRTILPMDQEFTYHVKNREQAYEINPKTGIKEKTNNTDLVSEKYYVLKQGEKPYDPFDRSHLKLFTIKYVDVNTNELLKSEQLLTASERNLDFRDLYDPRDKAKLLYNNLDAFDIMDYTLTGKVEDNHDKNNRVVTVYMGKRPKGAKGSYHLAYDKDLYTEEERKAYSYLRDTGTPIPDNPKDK
Put plainly: S. pyogenes streptokinase expression inhibitors, potency, dose response, plasminogen activation absorbance, OD405 (AID 1914).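 Also: secreted streptokinase activity via plasminogen activation per viability signal from cell pellet.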 The assay is classed as functional, Streptococcus pyogenes M1 GAS.

The nature of assay [4]: HEp-2 cell cytotoxicity, dose response, cytotoxicity control for RSV inhibitor project, HTS (AID 2410). The assay is classed as functional. Conditions: human respiratory syncytial virus.
Assay [5] deals with Streptococcus sp. 'group A'. Description: growth inhibition of control SK(-) GAS strain, dose response, counter-screen for streptokinase expression inhibitor project, luminescence, kanamycin, BacTiterGlo, confirmation (AID 1900). Type of assay: functional, organism-based. On the technique in general: A counterscreen serves to expose hits that act by an unwanted route or on another target.

The target of assay [6] is Neurotensin receptor type 1 (Homo sapiens, UniProt P30989). Type of assay: functional.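 Also: Image-based confirmatory dose-response assay measuring agonist activity at NTR1; NTR1-expressing U2OS osteosarcoma cells imaged for beta-arrestin GFP spot formation; agonist potency where compounds increase beta-arrestin recruitment.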
Assay [7] is described as follows: Luminescence Cell-Based Dose Retest to Confirm Inhibitors of Cancer Stem Cells. [Related pubchem assays (depositor defined):AID2717, AID2721]. Type of assay: functional. The conditions noted are these: Homo sapiens.
For assay [8], the target named is T2, Fatty acid synthase. Description: FAS thioesterase domain inhibitors, dose response, biochemical, kinetic fluorescence intensity (AID 624326).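 Also: rate of fluorescence rise from hydrolysis of a fluorogenic O-methyl fluorescein ester substrate.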 Type of assay: functional.
The next assay has as its system Streptococcus. Put plainly: Group A Streptococcus viability loss, dose response, counter-screen for streptokinase expression inhibitor project, luminescence, BacTiterGlo (AID 1915).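 Also: potency for reduction of bacterial viability or growth.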 Type of assay: functional, organism-based.
In assay [9] the target is T4, Endoribonuclease toxin MazF (Escherichia coli K-12, UniProt P0AE70). Description: fluorescent RNA oligo signal without MazF, dose response, counter-screen for MazEF activator project, biochemical, fluorescence, single-stranded RNase substrate (AID 588502). The assay is classed as functional.
The target in assay [10] is T4, Endoribonuclease toxin MazF. Description: MazF toxin RNase activators, dose response, biochemical, fluorescence, single-stranded RNA substrate, uHTS hits (AID 588481). The assay is classed as functional.
The next assay deals with Candida albicans. Description: growth inhibition of resistant C. albicans, dose response, CaCi-8 strain, fluconazole, dry powder, set 4 (AID 488950). Type of assay: functional, organism-based.
Assay [11] can be described thus: inhibitors of cytokine-induced nitrite release, dose response, cell-based, Griess absorbance, INS-1E, dry powder, set 3 (AID 488870). The assay is classed as functional. The conditions noted are these: Rattus norvegicus. In general terms: Griess reagent forms a coloured azo dye with nitrite.
The next assay has as its system INS1. Description: protection from cytokine-driven beta-cell apoptosis, dose response, JC-1 fluorescence, INS-1E, dry powder, set 2 (AID 488867). The conditions noted are these: Rattus norvegicus. The assay is classed as functional, cell-based.

Each structure is given as a SMILES string. Active and inactive are the calls of the source.

T4 sequence (P0AE70 whole entry): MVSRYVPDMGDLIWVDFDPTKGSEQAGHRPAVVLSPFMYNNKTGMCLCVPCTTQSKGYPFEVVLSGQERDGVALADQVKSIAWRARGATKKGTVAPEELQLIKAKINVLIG
T1 sequence (P07550 whole entry): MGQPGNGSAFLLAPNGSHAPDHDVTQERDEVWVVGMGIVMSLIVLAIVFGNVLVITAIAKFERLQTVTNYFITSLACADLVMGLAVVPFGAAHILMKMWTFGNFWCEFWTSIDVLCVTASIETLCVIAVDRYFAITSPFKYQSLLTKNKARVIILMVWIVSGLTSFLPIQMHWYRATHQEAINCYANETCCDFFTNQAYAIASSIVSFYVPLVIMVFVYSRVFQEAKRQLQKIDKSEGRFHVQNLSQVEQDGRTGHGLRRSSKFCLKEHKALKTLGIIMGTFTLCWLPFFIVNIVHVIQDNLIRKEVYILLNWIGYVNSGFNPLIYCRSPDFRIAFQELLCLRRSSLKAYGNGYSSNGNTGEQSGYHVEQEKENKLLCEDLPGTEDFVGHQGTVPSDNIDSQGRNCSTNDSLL
T2 sequence (P49327 whole entry, the tested form may be a part): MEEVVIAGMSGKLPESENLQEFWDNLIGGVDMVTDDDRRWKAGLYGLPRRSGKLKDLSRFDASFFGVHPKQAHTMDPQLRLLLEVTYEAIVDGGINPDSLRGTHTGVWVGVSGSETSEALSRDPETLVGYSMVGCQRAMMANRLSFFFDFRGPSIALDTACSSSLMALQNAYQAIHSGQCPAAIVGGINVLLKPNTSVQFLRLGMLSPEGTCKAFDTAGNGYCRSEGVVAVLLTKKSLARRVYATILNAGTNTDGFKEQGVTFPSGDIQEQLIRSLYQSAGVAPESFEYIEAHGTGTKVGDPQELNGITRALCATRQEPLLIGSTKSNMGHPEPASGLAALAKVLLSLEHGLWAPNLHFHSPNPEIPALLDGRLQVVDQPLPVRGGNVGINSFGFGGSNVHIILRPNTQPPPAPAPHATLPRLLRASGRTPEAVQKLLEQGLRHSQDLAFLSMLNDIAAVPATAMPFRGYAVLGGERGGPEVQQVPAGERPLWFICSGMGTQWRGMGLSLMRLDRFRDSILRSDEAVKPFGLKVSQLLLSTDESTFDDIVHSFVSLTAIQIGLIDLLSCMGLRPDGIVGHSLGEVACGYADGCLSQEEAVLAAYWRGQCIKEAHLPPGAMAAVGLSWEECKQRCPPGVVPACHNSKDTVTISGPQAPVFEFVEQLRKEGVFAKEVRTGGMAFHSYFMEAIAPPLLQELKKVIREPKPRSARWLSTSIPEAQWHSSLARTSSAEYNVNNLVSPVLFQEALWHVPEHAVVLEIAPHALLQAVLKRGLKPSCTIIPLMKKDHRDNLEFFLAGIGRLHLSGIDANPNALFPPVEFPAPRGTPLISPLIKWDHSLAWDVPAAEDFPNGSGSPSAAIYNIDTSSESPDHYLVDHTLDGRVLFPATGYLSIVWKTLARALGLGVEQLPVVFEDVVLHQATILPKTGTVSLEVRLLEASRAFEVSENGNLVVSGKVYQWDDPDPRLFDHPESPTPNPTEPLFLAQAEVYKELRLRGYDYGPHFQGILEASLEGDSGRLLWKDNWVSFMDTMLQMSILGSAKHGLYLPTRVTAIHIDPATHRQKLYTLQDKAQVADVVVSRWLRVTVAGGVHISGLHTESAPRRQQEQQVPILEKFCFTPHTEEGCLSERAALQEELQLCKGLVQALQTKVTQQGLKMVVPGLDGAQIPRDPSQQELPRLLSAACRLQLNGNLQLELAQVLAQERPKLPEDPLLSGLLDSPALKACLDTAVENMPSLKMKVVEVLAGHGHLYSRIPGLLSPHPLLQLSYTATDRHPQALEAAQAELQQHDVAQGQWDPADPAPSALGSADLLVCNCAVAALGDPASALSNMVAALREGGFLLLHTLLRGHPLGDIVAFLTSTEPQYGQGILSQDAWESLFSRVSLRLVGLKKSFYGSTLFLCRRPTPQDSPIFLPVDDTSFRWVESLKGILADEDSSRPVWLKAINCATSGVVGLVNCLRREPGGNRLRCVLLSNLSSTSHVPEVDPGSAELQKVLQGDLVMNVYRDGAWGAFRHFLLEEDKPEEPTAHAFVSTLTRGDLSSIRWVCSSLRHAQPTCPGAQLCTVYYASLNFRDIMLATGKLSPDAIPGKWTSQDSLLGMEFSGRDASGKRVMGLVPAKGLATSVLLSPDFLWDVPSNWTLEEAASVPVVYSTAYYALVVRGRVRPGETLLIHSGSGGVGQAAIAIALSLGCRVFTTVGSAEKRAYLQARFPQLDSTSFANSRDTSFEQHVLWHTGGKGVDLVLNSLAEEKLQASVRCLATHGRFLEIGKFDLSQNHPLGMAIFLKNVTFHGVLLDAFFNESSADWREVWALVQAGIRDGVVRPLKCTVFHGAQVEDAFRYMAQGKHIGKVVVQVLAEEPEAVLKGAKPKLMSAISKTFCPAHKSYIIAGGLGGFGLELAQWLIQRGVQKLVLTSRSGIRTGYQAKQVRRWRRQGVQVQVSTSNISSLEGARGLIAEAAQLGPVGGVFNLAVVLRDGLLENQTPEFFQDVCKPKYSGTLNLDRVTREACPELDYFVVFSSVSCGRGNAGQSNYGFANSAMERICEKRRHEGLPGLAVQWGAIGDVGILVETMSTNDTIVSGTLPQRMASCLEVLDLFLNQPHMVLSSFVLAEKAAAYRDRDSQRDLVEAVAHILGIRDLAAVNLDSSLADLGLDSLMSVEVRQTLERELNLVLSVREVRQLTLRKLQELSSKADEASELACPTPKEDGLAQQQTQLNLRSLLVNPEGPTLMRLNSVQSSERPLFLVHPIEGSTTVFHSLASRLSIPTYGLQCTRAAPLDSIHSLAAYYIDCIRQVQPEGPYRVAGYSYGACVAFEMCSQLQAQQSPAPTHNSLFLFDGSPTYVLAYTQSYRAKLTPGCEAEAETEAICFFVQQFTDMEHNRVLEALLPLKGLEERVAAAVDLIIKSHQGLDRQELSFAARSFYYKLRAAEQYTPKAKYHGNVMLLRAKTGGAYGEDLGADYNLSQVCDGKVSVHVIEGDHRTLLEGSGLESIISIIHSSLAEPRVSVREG
Neurotensin receptor type 1, sequence (P30989 whole entry): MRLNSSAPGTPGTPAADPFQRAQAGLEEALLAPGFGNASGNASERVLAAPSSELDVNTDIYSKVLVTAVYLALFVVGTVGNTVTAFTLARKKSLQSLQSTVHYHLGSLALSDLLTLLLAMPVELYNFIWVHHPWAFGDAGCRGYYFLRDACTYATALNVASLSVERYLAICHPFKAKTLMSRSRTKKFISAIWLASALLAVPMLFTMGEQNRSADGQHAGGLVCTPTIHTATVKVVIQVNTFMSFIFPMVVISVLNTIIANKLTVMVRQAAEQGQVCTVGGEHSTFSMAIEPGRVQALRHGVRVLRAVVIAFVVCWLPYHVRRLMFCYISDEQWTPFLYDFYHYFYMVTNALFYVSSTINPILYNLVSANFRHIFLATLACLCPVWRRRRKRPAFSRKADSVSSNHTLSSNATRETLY

By EC50 is commonly meant the concentration at which the effect is half-maximal. In the case of `CC(Oc1ccc(Cl)cc1Cl)c1nc(-c2ccc(NC(=O)c3ccccn3)cc2)no1` (stereo not given), the EC50 in [1] was 0.973 µM (active); in [2], 0.0883 µM (active).
The IC50 is the concentration that gives 50% inhibition. As a reminder, the CC50 is the concentration that lowers cell viability or growth by half. One may read the AC50 as the midpoint of the concentration-response curve, whichever way the signal moves. `O=[N+]([O-])c1ccc(-c2nc(Nc3cccc(O)c3)c3ccccc3n2)cc1`: the values for the half-maximal inhibitory concentration (IC50) at Fatty acid synthase [3] and on Fatty acid synthase [8] were 12.9 µM (active) and 13.2 µM (active), respectively. The EC50 on Streptokinase A is > 150 µM (not active); in assay [5], 11.4 µM (active); in assay [6], 15.3 µM (active); in the assay on Streptococcus, 8.36 µM (active); in assay [9], > 99 µM (inactive); in assay [10] it was > 99 µM (inactive). In [4], the CC50 is 22 µM (active). In addition, in [7], the concentration at half-maximal activity (AC50) was 3.24 µM (active).
`O=C(c1ccc(Cl)cc1)N1CCN(c2ccnc3ccccc23)CC1`: the AC50 with Candida albicans was 9.81 µM (active).
Consider `C[C@@H]1CN([C@@H](C)CO)C(=O)c2cccc(NC(=O)Nc3cccc4ccccc34)c2O[C@H]1CN(C)S(=O)(=O)c1ccc2c(c1)OCCCO2`, for which the AC50 was 32.2 µM (active) in assay [11] and 253 µM (active) in the assay on INS1.
